Source: PubChem BioAssay AID1963873 (Molecular Pharmacology Branch, DTP, NCI, 2024)
pIC50: −log10 of the molar value.

Test system: 276233-004-R-J1-PDC KRAS spheroids with HUVEC/MSC, viability
Experiment: Anticancer human tumor 276233-004-R-J1-PDC patient-derived colon adenocarcinoma cell line growth inhibition [KRAS2]
Details: for pIC50: curve of first compound; for viability, T/C: stronger effect = lower value
Excerpt: Multicellular complex tumor spheroid response to RAS pathway inhibitors in combination with a targeted agents in patient-derived cell lines with oncogenic KRAS variants from multiple cancer types
A high-throughput screen of multi-cell type tumor spheroids was designed to identify active combinations of targeted small molecules and KRAS pathway inhibitors. Complex spheroids include a stromal component modeled by human endothelial cells (HUVEC) and fibroblasts modeled by human mesenchymal stem cells (MSCs). The concentration ranges selected for each drug and investigational agent were based upon clinically achievable concentrations if the clinical Cmax of the agent was known.
Compounds. The drugs and investigational agents: BI-3406 (NSC825286), BAY-293 (NSC824723), batoprotafib (TNO155; NSC825523), sotorasib (AMG 510; NSC818433), MRTX1257 (NSC819558), elimusertib (BAY 1895344; NSC800525), molibresib (GSK525762; NSC774829), temuterkib (LY3214996; NSC803410), venetoclax (NSC766270), alisertib (NSC759677), olaparib (NSC753686), talazoparib (NSC767125), erdafitinib (NSC781556), ipatasertib (NSC767898), cabozantinib (NSC761068), nintedanib (NSC756659), abemaciclib (NSC768073), docetaxel (NSC628503), trametinib (NSC758246), and sapanisertib (NSC764658) were obtained from the National Cancer Institute (NCI) Developmental Therapeutics Program Chemical Repository. The FDA-approved anticancer drug set is available from the Developmental Therapeutics Program. […] The stock solutions were prepared in dimethyl sulfoxide (DMSO, Sigma-Aldrich, St. Louis, MO, cat. D2650) at 800-fold the tested concentration and stored at -70 degrees C prior to their use. All drugs and investigational agents were tested over a range starting from a high concentration at or near the clinical Cmax and decreasing in half-log increments. If the clinical Cmax for an agent had not been determined, the highest concentration tested was 10 microM.
Cell Culture. All cells were maintained in an incubator at 37 degrees C and 5% CO2 with 95% humidity. The PDC lines were cultured according to standard operating procedures established by the NCI PDMR (https://pdmr.cancer.gov/sops/default.htm). Briefly, all PDCs were thawed and cultured in Matrigel-coated flasks prepared with a working solution of 1X Ham's F-12 nutrient mix, without supplementation (Invitrogen, Waltham, MA, cat. 11765054), 100 U/mL penicillin-streptomycin (Invitrogen, cat. 15140122), and 2.5% Matrigel (Corning Inc., Corning, NY, cat. 354248) for the first three passages. All PDCs were cultured in complete DMEM/F-12 media containing advanced DMEM/F-12 (Invitrogen, cat. 12634028), 4.9% defined fetal bovine serum, heat inactivated (HyClone Laboratories Inc., Logan, UT, cat. SH30070.03HI), 389 ng/mL hydrocortisone (Sigma-Aldrich, cat. H4001), 9.7 ng/mL human EGF recombinant protein (Invitrogen, cat. PHG0313), 23.4 microg/mL adenine (Sigma-Aldrich, cat. A2786), 97.3 U/mL penicillin-streptomycin (Invitrogen, cat. 15140122), 1.9 mM L-glutamine (Invitrogen, cat. 25030081), and 9.7 microM Y-27632 dihydrochloride (Tocris Bioscience, Bristol, United Kingdom, cat. 1254). The PDCs were cultured in complete DMEM/F12 media without 9.7 microM Y-27632 dihydrochloride for at least two passages prior to the screen. The established cell line HOP-62 was cultured in RPMI 1640 medium, HEPES (Invitrogen, cat. 22400105) with 10% defined fetal bovine serum (HyClone Laboratories Inc., cat. SH30070.03) and 2 mM L-glutamine (Invitrogen, cat. 25030081). The pooled donor HUVEC were cultured in endothelial cell growth medium 2 (PromoCell, Heidelberg, Germany, cat. C-22011) and the hMSC were cultured in mesenchymal stem cell growth medium 2 (PromoCell, cat. C-28009). For all experiments, HUVEC and hMSC were used at passages </=5, while the malignant cell lines were used at passages </=15. […]

[1] = second compound 0.1 µM, first compound 0.00316 µM
[2] = second compound 0.1 µM, first compound 0.01 µM
[3] = second compound 0.1 µM, first compound 0.0316 µM
[4] = second compound 0.1 µM, first compound 0.1 µM
[5] = second compound 0.316 µM, first compound 0.00316 µM
[6] = second compound 0.316 µM, first compound 0.01 µM
[7] = second compound 0.316 µM, first compound 0.0316 µM
[8] = second compound 0.316 µM, first compound 0.1 µM
[9] = second compound 1 µM, first compound 0.00316 µM
[10] = second compound 1 µM, first compound 0.01 µM
[11] = second compound 1 µM, first compound 0.0316 µM
[12] = second compound 1 µM, first compound 0.1 µM
[13] = second compound 3.16 µM, first compound 0.00316 µM
[14] = second compound 3.16 µM, first compound 0.01 µM
[15] = second compound 3.16 µM, first compound 0.0316 µM
[16] = second compound 3.16 µM, first compound 0.1 µM
[17] = second compound 10 µM, first compound 0.00316 µM
[18] = second compound 10 µM, first compound 0.01 µM
[19] = second compound 10 µM, first compound 0.0316 µM
[20] = second compound 10 µM, first compound 0.1 µM
[21] = second compound 0.1 µM, first compound 0.316 µM
[22] = second compound 0.1 µM, first compound 1 µM
[23] = second compound 0.316 µM, first compound 0.316 µM
[24] = second compound 0.316 µM, first compound 1 µM
[25] = second compound 1 µM, first compound 0.316 µM
[26] = second compound 1 µM, first compound 1 µM
[27] = second compound 3.16 µM, first compound 0.316 µM
[28] = second compound 3.16 µM, first compound 1 µM
[29] = second compound 10 µM, first compound 0.316 µM
[30] = second compound 10 µM, first compound 1 µM
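Note: cells exposed to agents for seven days before viability read.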
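Throughout, for viability, T/C: 100% = DMSO vehicle control wells and lower values mean fewer viable cells.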

Question: Cn1ncnc1[C@H]1c2n[nH]c(=O)c3cc(F)cc(c23)N[C@@H]1c1ccc(F)cc1 + C=CC(=O)N1CCN(c2nc(=O)n(-c3c(C)ccnc3C(C)C)c3nc(-c4c(O)cccc4F)c(F)cc23)C(C)C1 was tested. Which pIC50 (second compound 0.1 µM) did it give?
Answer: < 7.00

Question: What about the pIC50 (second compound 0.316 µM) of the same molecule?
Answer: < 7.00

Question: And the pIC50 (second compound 1 µM)?
Answer: < 7.00

Question: And the pIC50 (second compound 3.16 µM)?
Answer: < 7.00

Question: And the pIC50 (second compound 10 µM)?
Answer: < 7.00

Question: And the viability, T/C (second compound 0.1 µM, first compound 0.000316 µM)?
Answer: 89.7%

Question: What about the viability, T/C (second compound 0.1 µM, first compound 0.001 µM) of the same molecule?
Answer: 98%

Question: What about the viability, T/C [1] of the same molecule?
Answer: 94.8%

Question: And the viability, T/C [2]?
Answer: 99.5%

Question: What about the viability, T/C [3] of the same molecule?
Answer: 95.1%

Question: What about the viability, T/C [4] of the same molecule?
Answer: 91.7%

Question: What about the viability, T/C (second compound 0.316 µM, first compound 0.000316 µM) of the same molecule?
Answer: 99.6%

Question: What about the viability, T/C (second compound 0.316 µM, first compound 0.001 µM) of the same molecule?
Answer: 111%

Question: What about the viability, T/C [5] of the same molecule?
Answer: 101%

Question: And the viability, T/C [6]?
Answer: 100%

Question: What about the viability, T/C [7] of the same molecule?
Answer: 94.4%

Question: And the viability, T/C [8]?
Answer: 92%

Question: What about the viability, T/C (second compound 1 µM, first compound 0.000316 µM) of the same molecule?
Answer: 98.6%

Question: And the viability, T/C (second compound 1 µM, first compound 0.001 µM)?
Answer: 121%

Question: What about the viability, T/C [9] of the same molecule?
Answer: 138%

Question: And the viability, T/C [10]?
Answer: 93.9%

Question: And the viability, T/C [11]?
Answer: 95.5%

Question: And the viability, T/C [12]?
Answer: 94.9%

Question: And the viability, T/C (second compound 3.16 µM, first compound 0.000316 µM)?
Answer: 98.4%

Question: And the viability, T/C (second compound 3.16 µM, first compound 0.001 µM)?
Answer: 116%

Question: What about the viability, T/C [13] of the same molecule?
Answer: 117%

Question: What about the viability, T/C [14] of the same molecule?
Answer: 92.5%

Question: And the viability, T/C [15]?
Answer: 97.8%

Question: And the viability, T/C [16]?
Answer: 133%

Question: What about the viability, T/C (second compound 10 µM, first compound 0.000316 µM) of the same molecule?
Answer: 88.2%

Question: And the viability, T/C (second compound 10 µM, first compound 0.001 µM)?
Answer: 91.3%

Question: And the viability, T/C [17]?
Answer: 114%

Question: What about the viability, T/C [18] of the same molecule?
Answer: 85.7%

Question: And the viability, T/C [19]?
Answer: 83.4%

Question: And the viability, T/C [20]?
Answer: 88.4%

Question: What does the source list for CCN1CCN(Cc2ccc(Nc3ncc(F)c(-c4cc(F)c5nc(C)n(C(C)C)c5c4)n3)nc2)CC1 + CNCc1ccccc1-c1csc(C(C)Nc2nc(C)nc3cc(OC)c(OC)cc23)c1?
Answer: pIC50 (second compound 0.1 µM): < 6.00; pIC50 (second compound 0.316 µM): < 6.00; pIC50 (second compound 1 µM): 6.27; pIC50 (second compound 3.16 µM): > 8.50; pIC50 (second compound 10 µM): > 8.50; viability, T/C [1]: 129%; viability, T/C [2]: 106%; viability, T/C [3]: 87.1%; viability, T/C [4]: 92.1%; viability, T/C [21]: 126%; viability, T/C [22]: 115%; viability, T/C [5]: 90.2%; viability, T/C [6]: 111%; viability, T/C [7]: 95.3%; viability, T/C [8]: 107%; viability, T/C [23]: 104%; viability, T/C [24]: 116%; viability, T/C [9]: 92.2%; viability, T/C [10]: 96.9%; viability, T/C [11]: 76.3%; viability, T/C [12]: 76.2%; viability, T/C [25]: 80.7%; viability, T/C [26]: 16%; viability, T/C [13]: 0.71%; viability, T/C [14]: 0.53%; viability, T/C [15]: 0.51%; viability, T/C [16]: 0.41%; viability, T/C [27]: 1.45%; viability, T/C [28]: 0.72%; viability, T/C [17]: 0.81%; viability, T/C [18]: 1.33%; viability, T/C [19]: 0.33%; viability, T/C [20]: 0.21%; viability, T/C [29]: 0.22%; viability, T/C [30]: 0.3%

Question: Which results are given for CC1(C)CCC(CN2CCN(c3ccc(C(=O)NS(=O)(=O)c4ccc(NCC5CCOCC5)c([N+](=O)[O-])c4)c(Oc4cnc5[nH]ccc5c4)c3)CC2)=C(c2ccc(Cl)cc2)C1 + CC1OCC2(CCN(c3cnc(Sc4ccnc(N)c4Cl)c(N)n3)CC2)C1N?
Answer: pIC50 (second compound 0.1 µM): < 5.00; pIC50 (second compound 0.316 µM): 5.22; pIC50 (second compound 1 µM): 5.50; pIC50 (second compound 3.16 µM): 5.59; pIC50 (second compound 10 µM): 5.49; viability, T/C [3]: 78.6%; viability, T/C [4]: 91.9%; viability, T/C [21]: 72.4%; viability, T/C [22]: 116%; viability, T/C (second compound 0.1 µM, first compound 3.16 µM): 74.8%; viability, T/C (second compound 0.1 µM, first compound 10 µM): 54.9%; viability, T/C [7]: 89.7%; viability, T/C [8]: 77.9%; viability, T/C [23]: 89.2%; viability, T/C [24]: 81%; viability, T/C (second compound 0.316 µM, first compound 3.16 µM): 63.7%; viability, T/C (second compound 0.316 µM, first compound 10 µM): 39%; viability, T/C [11]: 67.3%; viability, T/C [12]: 75%; viability, T/C [25]: 85.7%; viability, T/C [26]: 62.3%; viability, T/C (second compound 1 µM, first compound 3.16 µM): 51.6%; viability, T/C (second compound 1 µM, first compound 10 µM): 27.2%; viability, T/C [15]: 69.1%; viability, T/C [16]: 62.6%; viability, T/C [27]: 77.5%; viability, T/C [28]: 81.1%; viability, T/C (second compound 3.16 µM, first compound 3.16 µM): 45%; viability, T/C (second compound 3.16 µM, first compound 10 µM): 24.8%; viability, T/C [19]: 60.1%; viability, T/C [20]: 72%; viability, T/C [29]: 65.8%; viability, T/C [30]: 72.7%; viability, T/C (second compound 10 µM, first compound 3.16 µM): 50.4%; viability, T/C (second compound 10 µM, first compound 10 µM): 14.4%
